Assay results reported in publication PMC6254336, “Structural and functional characterization of IdiA/FutA (Tery_3377), an iron-binding protein from the ocean diazotroph Trichodesmium erythraeum” (The Journal of Biological Chemistry, 2018).

Biological target: T1, Tery_3377 (IdiA/FutA) (Trichodesmium erythraeum, UniProt Q10Z45)
T1 construct: mature protein, predicted signal peptide (residues 1-31) removed, C-terminal His6 tag, pET21a(+), E. coli BL21(DE3); two monomers per asymmetric unit
Assay: X-ray crystal structure, […] Å
Details: two citrates bound in the substrate-binding cleft together with one Fe3+ that they coordinate, about 7 Å from the empty iron site; protein citrate-treated before crystallisation; carboxylic acids mix

T1 sequence (Q10Z45 entry or part of it): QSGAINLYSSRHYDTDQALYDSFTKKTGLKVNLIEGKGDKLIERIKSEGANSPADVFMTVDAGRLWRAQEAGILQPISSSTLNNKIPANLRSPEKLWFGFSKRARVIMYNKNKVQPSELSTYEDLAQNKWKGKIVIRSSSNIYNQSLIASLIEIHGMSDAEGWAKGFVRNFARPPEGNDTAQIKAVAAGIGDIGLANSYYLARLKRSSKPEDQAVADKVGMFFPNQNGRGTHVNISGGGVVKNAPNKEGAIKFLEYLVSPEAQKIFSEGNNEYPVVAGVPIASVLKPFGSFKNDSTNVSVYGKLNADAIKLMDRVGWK

## O=C(O)CC(O)(CC(=O)O)C(=O)O [citrate]
  X-ray crystal structure, 1.2 Å: traps the citrate molecule with bound iron in the substrate-binding cleft
